Measured values taken from patent US20040014777A1, “Remedies for retinal nerve diseases containing 1,2-ethanediol derivatives or salts thereof” (Toyama Chemical Co., LTD., priority 2000, published 2004).

Tests used:
retinal ganglion cells [1] = assay: Protective effect on retinal ganglion cells in a glaucoma model (India ink injection and angle photocoagulation); assay type: in vivo, Wistar white rats; conditions: T-588 100 mg/kg orally
Source text: 1. Protective Effect on Retinal Ganglion Cells in a Glaucoma Model
Wistar white rats [male, body weight 290-310 g] were subjected to a general anesthesia by intraperitoneal injection of ketamine hydrochloride and xylazine hydrochloride. Subsequently, the rats were subjected to an instillation anesthesia with oxybuprocaine hydrochloride. After the measuring both the intraocular pressures with a pneumatonometer (Model Classic 30:Mentor, Norwell, Mass., U.S.A.), the anterior chamber of the right eye was punctured with a 30-gage needle to aspirate the aqueous humor, and then about 30 μL of 35% India ink was injected thereinto. […]
Immediately after the coagulation, ophthalmoscopy was performed in all the animals in order to confirm the occlusion of retina central artery. Five days after the angle photocoagulation, the intraocular pressure was measured to confirm an elevation of the intraocular pressure in the right eye. […] From the fluorescent microscopic photographs, the number of labeled cell was counted by means of an image analyzer. The labeling rate of retinal ganglion cell was calculated as a ratio of the number of labeled ganglion cells in the right eye to the number of labeled ganglion cells in the control eye (left eye).
On the eighth day from the angle photocoagulation, the number of alive retinal ganglion cells was counted and compared with that of a normal eye. […]

retinal ganglion cells [2] = assay: Protective effect on retinal ganglion cells in a retinal ischemia-reperfusion rat model; assay type: in vivo, SD rats; conditions: fourteen days after retinal ischemia-reperfusion, n=8, control group 40%
Description: 2. Protective Effect on Retinal Ganglion Cells in a Retinal Ischemia-Reperfusion Rat Model
As a retinal ischemia-reperfusion model, the manner in Steven Roth et al. (Experimental Eye Research, Vol. 65, Pages 771-779, 1997) was used with partial modification.
As the test animals, SD rats (Japan SLC), 9 weeks old (body weight: about 300 g) were used. The operation was carried out under a halothane-anesthetized condition (introduction 5%, maintenance 2%). First, the animal was fixed on the table in a lateral decubitus, and the middle part of the skin between the external auditory canal and the external ocular angle was incised. After peeling off the temporal muscle from the cranium, the tissues surrounding the optic nerve were peeled off to expose the optic nerve. The retina central vessels were ligated together with the optic nerve with a 4-0 silk thread so as to avoid the damage of optic nerve. Thirty minutes after, the silk thread was released to reperfuse the blood flow. T-588 was orally administered 30 minutes before the ischemic treatment and just after the reperfusion. From the day next to the operation, T-588 was orally administered twice a day. […] The number of retinal ganglion cells was counted in the two region from the optic disk to 0.5 mm distant point and a ratio of the number of neurons in the ischemic eye to that in the normal eye was calculated on each individual. […]

[3] = system: neuron cell death caused by amyloid β-protein; conditions: Society for Neuroscience Abstracts Vol. 24, 1998; cited from earlier work
nerve growth factor = conditions: WO96/12717; cited from earlier work

## CCN(CC)CCOC[C@H](O)c1ccc2sccc2c1.Cl [T-588, (R)-1-(benzo[b]thiophen-5-yl)-2-[2-(N,N-diethylamino)ethoxy]ethanol hydrochloride]
Retinal ganglion cells [1]; eighth day from angle photocoagulation, n=9, control group 78%
  survival rate of retinal ganglion cells (tested eye compared with normal eye): 91%
Retinal ganglion cells [1]; glaucoma model rats
  influence on the elevation of intraocular pressure: no influence
Retinal ganglion cells [2]; T-588 10 mg/kg orally twice a day
  survival rate of retinal ganglion cells (tested eye compared with normal eye): 57%
Retinal ganglion cells [2]; T-588 30 mg/kg orally twice a day
  survival rate of retinal ganglion cells (tested eye compared with normal eye): 70%
[3]
  effect against neuron cell death caused by amyloid β-protein: protective effects
Nerve growth factor
  effect on nerve growth factor activity: nerve growth factor activity-improving effect
